# Source: US10407691B2 (priority 2014, dated 2019)
# pEC50: −log10 of the molar value. “Also recorded” adds a separate entry of the source. Non-standard residues stand in square brackets, D forms with d. Residues, ends and D or L forms follow the SMILES beside them. sY = N[C@@H](Cc1ccc(OS(=O)(=O)O)cc1)C(=O)O
# Experiments:
# XA21 [1] = molecular target: T1, XA21 (Oryza sativa subsp. indica, UniProt Q1MX30); assay type: cell-based, Oryza sativa ssp. japonica
# XA21 [2] = molecular target: T1, XA21; test: cell-based; assay type: cell-based, Oryza sativa ssp. japonica
# Arabidopsis seedlings [3] = system: Arabidopsis seedlings; set-up: species or system Arabidopsis thaliana; conditions: in vivo
# rice seedlings = system: rice seedlings; set-up: species or system Oryza sativa sp. japonica; conditions: in vivo
# Arabidopsis seedlings [4] = system: Arabidopsis seedlings; set-up: species or system Arabidopsis thaliana; conditions: in vivo; remark: listed apart in the source
# tpst-1 seedlings = system: tpst-1 seedlings; set-up: species or system Arabidopsis thaliana; conditions: in vivo
# XA21 [5] = molecular target: T1, XA21; assay type: cell-based, Oryza sativa ssp. japonica; remark: listed apart in the source
# T1 sequence (Q1MX30 24-1025 limits assumed): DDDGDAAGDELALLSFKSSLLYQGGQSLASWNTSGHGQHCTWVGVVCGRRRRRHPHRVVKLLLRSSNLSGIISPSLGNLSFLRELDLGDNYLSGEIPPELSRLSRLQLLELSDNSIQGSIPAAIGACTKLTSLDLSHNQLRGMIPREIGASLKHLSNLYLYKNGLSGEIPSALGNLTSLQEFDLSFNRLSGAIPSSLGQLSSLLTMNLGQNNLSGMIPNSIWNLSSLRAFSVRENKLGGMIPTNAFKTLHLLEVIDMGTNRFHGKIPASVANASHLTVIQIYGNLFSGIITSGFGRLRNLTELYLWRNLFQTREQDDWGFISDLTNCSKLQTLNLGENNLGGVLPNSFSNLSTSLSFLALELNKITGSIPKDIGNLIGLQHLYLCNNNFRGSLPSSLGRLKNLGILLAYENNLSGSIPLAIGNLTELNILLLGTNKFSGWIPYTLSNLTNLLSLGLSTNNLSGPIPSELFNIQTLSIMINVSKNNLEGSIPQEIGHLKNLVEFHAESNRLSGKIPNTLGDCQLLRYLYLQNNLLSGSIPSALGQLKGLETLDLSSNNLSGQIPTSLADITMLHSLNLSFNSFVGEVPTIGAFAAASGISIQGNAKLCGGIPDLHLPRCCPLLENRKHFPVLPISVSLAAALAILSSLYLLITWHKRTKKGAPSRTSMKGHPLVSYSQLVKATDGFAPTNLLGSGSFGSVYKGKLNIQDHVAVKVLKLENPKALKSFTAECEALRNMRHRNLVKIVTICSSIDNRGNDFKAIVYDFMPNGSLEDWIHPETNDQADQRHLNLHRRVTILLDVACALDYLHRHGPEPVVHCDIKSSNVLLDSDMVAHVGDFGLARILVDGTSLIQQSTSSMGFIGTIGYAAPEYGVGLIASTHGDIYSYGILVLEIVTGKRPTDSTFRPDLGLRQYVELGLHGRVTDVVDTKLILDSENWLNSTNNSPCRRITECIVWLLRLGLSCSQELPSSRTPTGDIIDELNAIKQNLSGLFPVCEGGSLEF
molecule,measurement,setting,value
KGRPEPLDQRLWKHVGGGDYPPPGANPKHDPPPRNPGHH [RaxX39-Y],defense gene expression (PR10b and Os06g37224),XA21 [1],does not
LWKHVGGGDYPPPGANPK [RaxX18-sY],ROS production dose response (activity),XA21 [2],completely inactive
same,XA21-mediated defense responses (ability to activate XA21-dependent signaling),XA21 [2],do not
same,total ROS production over 3 h,XA21 [2],compromised in this activity
LWKHVGGGDY^SPPPGANTKHDPPPK [RaxX24-Xe-sY],root growth promotion,Arabidopsis seedlings [3],promoted root growth on Arabidopsis seedlings in a manner similar to that of RaxX21-sY
DY^SPPPGANPKHDP [RaxX13-sY],root growth promotion,Arabidopsis seedlings [3],still capable of promoting root growth
same,root growth,rice seedlings,still capable of promoting root growth
same,ROS production over 90 min,XA21 [2],did not induce ROS production
LWKHVGGGDY^SAPPGSNDRHDPPKP [RaxX24-Xcm-sY],root growth promotion,Arabidopsis seedlings [3],promoted root growth on Arabidopsis seedlings in a manner similar to that of RaxX21-sY
"Y^SIY^STQ [PSK, reference compound]",dose dependent activity on root growth,Arabidopsis seedlings [3],comparable
same,effect on elf18-triggered growth inhibition,Arabidopsis seedlings [4],attenuates elf18-mediated growth inhibition
same,ROS production over 90 min,XA21 [2],failed to activate XA21-mediated immune response
CC(C)C[C@H](N)C(=O)N[C@@H](Cc1c[nH]c2ccccc12)C(=O)N[C@@H](CCCCN)C(=O)N[C@@H](Cc1c[nH]cn1)C(=O)N[C@H](C(=O)NCC(=O)NCC(=O)NCC(=O)N[C@@H](CC(=O)O)C(=O)N[C@@H](Cc1ccc(OS(=O)(=O)O)cc1)C(=O)N1CCC[C@H]1C(=O)N1CCC[C@H]1C(=O)N1CCC[C@H]1C(=O)NCC(=O)N[C@@H](C)C(=O)N[C@@H](CC(N)=O)C(=O)N1CCC[C@H]1C(=O)N[C@@H](CCCCN)C(=O)N[C@@H](Cc1c[nH]cn1)C(=O)N[C@@H](CC(=O)O)C(=O)N1CCC[C@H]1C(=O)N1CCC[C@H]1C(=O)N1CCC[C@H]1C(=O)N[C@@H](CCCNC(=N)N)C(=O)O)C(C)C [RaxX24-sY],pEC50,XA21 [2],~7.52
same,XA21-mediated defense responses (ability to activate XA21-dependent signaling),XA21 [2],trigger XA21-mediated defense responses
same,total ROS production over 3 h,XA21 [2],confirmed
"DY^SPAPGANPRHNPKRPPG [OsPSY1a, reference compound]",ROS production over 90 min,XA21 [2],failed to induce ROS production
"DY^SGDPSANPKHDPGVPPS [AtPSY1, reference compound]",dose dependent activity on root growth,Arabidopsis seedlings [3],less active than RaxX21-sY and PSK
same,root growth,Arabidopsis seedlings [3],increased root growth in a similar manner to that observed for treatment of wild type Col-0 seedlings; also recorded: also responds
same,root growth,rice seedlings,significantly enhanced root growth
same,root growth rate,tpst-1 seedlings,increased root growth rate
same,effect on elf18-triggered growth inhibition,Arabidopsis seedlings [4],do not prevent elf18-triggered growth inhibition
same,ROS production over 90 min,XA21 [2],failed to induce ROS production
DY^SPPPGANPKHDPPPR [RaxX16-sY],root growth promotion,Arabidopsis seedlings [3],still capable of promoting root growth
same,root growth,rice seedlings,still capable of promoting root growth
same,ROS production over 90 min,XA21 [2],triggered a ROS response characteristic of the XA21-mediated immune response; also recorded: able to recognize
LWKHVGGGDY^SPPSGPNTKHDPPPP [RaxX24-Xoc-sY],root growth promotion,Arabidopsis seedlings [3],promoted root growth on Arabidopsis seedlings in a manner similar to that of RaxX21-sY; also recorded: still capable of inducing root growth
CC(C)C[C@H](NC(=O)[C@H](CCCNC(=N)N)NC(=O)[C@H](CCC(N)=O)NC(=O)[C@H](CC(=O)O)NC(=O)[C@H](CC(C)C)NC(=O)[C@@H]1CCCN1C(=O)[C@H](CCC(=O)O)NC(=O)[C@@H]1CCCN1C(=O)[C@H](CCCNC(=N)N)NC(=O)CNC(=O)[C@@H](N)CCCCN)C(=O)N[C@@H](Cc1c[nH]c2ccccc12)C(=O)N[C@@H](CCCCN)C(=O)N[C@@H](Cc1c[nH]cn1)C(=O)N[C@H](C(=O)NCC(=O)NCC(=O)NCC(=O)N[C@@H](CC(=O)O)C(=O)N[C@@H](Cc1ccc(OS(=O)(=O)O)cc1)C(=O)N1CCC[C@H]1C(=O)N1CCC[C@H]1C(=O)N1CCC[C@H]1C(=O)NCC(=O)N[C@@H](C)C(=O)N[C@@H](CC(N)=O)C(=O)N1CCC[C@H]1C(=O)N[C@@H](CCCCN)C(=O)N[C@@H](Cc1c[nH]cn1)C(=O)N[C@@H](CC(=O)O)C(=O)N1CCC[C@H]1C(=O)N1CCC[C@H]1C(=O)N1CCC[C@H]1C(=O)N[C@@H](CCCNC(=N)N)C(=O)N[C@@H](CC(N)=O)C(=O)N1CCC[C@H]1C(=O)NCC(=O)N[C@@H](Cc1c[nH]cn1)C(=O)N[C@@H](Cc1c[nH]cn1)C(=O)O)C(C)C [RaxX39-sY],defense gene expression (PR10b and Os06g37224),XA21 [1],triggers defense gene expression in an XA21-dependent manner; also recorded: activates XA21-mediated defense gene expression
same,XA21-mediated defense responses (ability to activate XA21-dependent signaling),XA21 [2],trigger XA21-mediated defense responses
"CC(C)[C@H](NC(=O)[C@@H](N)Cc1c[nH]cn1)C(=O)NCC(=O)NCC(=O)NCC(=O)N[C@@H](CC(=O)O)C(=O)N[C@@H](Cc1ccc(OS(=O)(=O)O)cc1)C(=O)N1CCC[C@H]1C(=O)N1CCC[C@H]1C(=O)N1CCC[C@H]1C(=O)NCC(=O)N[C@@H](C)C(=O)N[C@@H](CC(N)=O)C(=O)N1CCC[C@H]1C(=O)N[C@@H](CCCCN)C(=O)N[C@@H](Cc1c[nH]cn1)C(=O)N[C@@H](CC(=O)O)C(=O)N1CCC[C@H]1C(=O)N1CCC[C@H]1C(=O)N1CCC[C@H]1C(=O)N[C@@H](CCCNC(=N)N)C(=O)O [RaxX21-sY, HVGGGDY^SPPPGANPKHDPPPR] (H-HVGGGD[sY]PPPGANPKHDPPPR-OH)",average root length,Arabidopsis seedlings [3],61 mm
same,dose dependent activity on root growth,Arabidopsis seedlings [3],effective at inducing root growth at concentrations in the low nanomolar range
same,root growth promotion,Arabidopsis seedlings [3],promoted root growth in a similar manner to that observed for AtPSY1; also recorded: promotes root growth in Arabidopsis and rice
same,root length,Arabidopsis seedlings [3],statistically longer root lengths
same,root growth,rice seedlings,significantly enhanced root growth; also recorded: promotes root growth in Arabidopsis and rice
same,root length,rice seedlings,significantly longer roots
same,root growth rate,tpst-1 seedlings,increased root growth rate
same,defense gene expression,XA21 [1],significant RaxX21-sY-mediated upregulation of defense gene expression and ROS production; also recorded: activates gene expression
same,defense gene induction (Os06g37224),XA21 [1],induced ROS production and defense gene expression changes
same,"defense marker gene expression (Os04g10100, PR10b, Os12g36830, Os06g37224), temporal changes",XA21 [1],able to activate; also recorded: sufficient to activate XA21-mediated defense gene expression
same,effect on elf18-triggered growth inhibition,Arabidopsis seedlings [4],do not prevent elf18-triggered growth inhibition
same,ethylene production,XA21 [5],able to activate
same,ROS production,XA21 [2],significant RaxX21-sY-mediated upregulation of defense gene expression and ROS production; also recorded: induced ROS production and defense gene expression changes; also recorded: activates the production of ROS
same,ROS production over 90 min,XA21 [2],triggered a ROS response characteristic of the XA21-mediated immune response
same,XA21-mediated defense responses (ability to activate XA21-dependent signaling),XA21 [2],trigger XA21-mediated defense responses
same,total ROS production over 3 h,XA21 [2],retained the ability to induce XA21-dependent signaling; also recorded: able to activate
HVGGGDYPPPGANPKHDPPPR [RaxX21-Y],dose dependent activity on root growth,Arabidopsis seedlings [3],"promoted root growth, but was less active than the sulfated version"
same,ethylene production,XA21 [5],not
